The values below come from PMC4648443, “Protein evolution analysis of S-hydroxynitrile lyase by complete sequence design utilizing the INTMSAlign software” (Scientific Reports, 2015).

SMILES strings stand for the structures. Like-named read-outs stand apart in the source and are kept apart here.

Assay [1] has as its system T1, HNL30.
T1 construct: pET28b (NdeI/XhoI), E. coli BL21(DE3), Ni-Sepharose and gel filtration
The experiment in a line: benzaldehyde formation at […] nm. The class given is biochemical, synthetic construct. As to conditions: 100 mM citrate pH 5.5, 30 °C.

Assay [2] relates to T2, HNL54.
T2 construct: synthetic gene in pET28b (NdeI/XhoI), E. coli BL21(DE3), Ni-Sepharose and gel filtration
Briefly: benzaldehyde formation at […] nm. Type of assay: biochemical, synthetic construct. The note with it: 100 mM citrate pH 5.5, 30 °C.

For the compound `N#C[C@@H](O)c1ccccc1` [(S)-Man], the Km stood at 400 µM in assay [1] (read-out: HNL30 / Km) and 610 µM in assay [2] (read-out: HNL54 / Km).
As to `N#C[C@H](O)c1ccccc1` [(R)-Man], the results for the Km in assay [1] (read-out: HNL30 / Km) and in assay [2] (read-out: HNL54 / Km) were 5000 µM and 370 µM, respectively.
As to `N#CC(O)c1ccccc1` (racemic) [rac-Man], the Km in assay [1] (read-out: Km /) was 800 ± 100 µM; in assay [2] (read-out: Km /) it was 3200 ± 300 µM.
